Assay results reported in ChEMBL document CHEMBL5104192, “Late-Stage Functionalization with Cysteine Staples Generates Potent and Selective Melanocortin Receptor-1 Agonists” (J Med Chem, 2022).
*1 amine or outer side, *2 acyl side, *3 side chain or, on linkers, in order; H or OH if unused. Where a SMILES comes first, the peptide text is derived from it. Bridges are numbered along the chain shown (N, C = ends). [ ]: non-standard residue; d: D form. Maleimide(3,4-diyl) = O=C1NC(=O)C([*:2])=C1[*:1]; CH2COCH2 = O=C(C[*:1])C[*:2]; X1 = n1nc([*:2])nnc1[*:1]; Nle = CCCC[C@H](N)C(=O)O

Experiments:
Melanocortin receptor 3 [1] = biological target: T1, Melanocortin receptor 3 (Homo sapiens, UniProt P41968); assay: Agonist activity at human MC3R expressed in HEK2936E cells assessed as cAMP production in presence of IBMX by time resolved fluorescence assay; assay type: functional, cell-based; settings: for pEC50: hek2936e
T1 sequence (P41968 whole entry): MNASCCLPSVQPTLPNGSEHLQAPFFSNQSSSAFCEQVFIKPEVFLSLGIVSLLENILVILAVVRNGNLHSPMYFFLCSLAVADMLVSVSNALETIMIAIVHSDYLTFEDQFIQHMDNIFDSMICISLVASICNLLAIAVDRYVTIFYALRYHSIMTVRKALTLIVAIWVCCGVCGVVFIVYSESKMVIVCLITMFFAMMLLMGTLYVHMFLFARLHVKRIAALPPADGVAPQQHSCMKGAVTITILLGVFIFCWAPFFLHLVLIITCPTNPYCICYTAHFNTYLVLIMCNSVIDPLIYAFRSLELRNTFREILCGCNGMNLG

[2] = biological target: T2, Melanocyte-stimulating hormone receptor (Homo sapiens, UniProt Q01726); assay: Displacement of [125I]-NDP-alpha-MSH from human MC1R expressed in HEK2936E cell membrane measured after 16 to 23 hrs by 1450 microbeta trilux scintillation proximity assay; assay type: cell membranes; settings: for pKi: hek2936e
T2 sequence (Q01726 whole entry): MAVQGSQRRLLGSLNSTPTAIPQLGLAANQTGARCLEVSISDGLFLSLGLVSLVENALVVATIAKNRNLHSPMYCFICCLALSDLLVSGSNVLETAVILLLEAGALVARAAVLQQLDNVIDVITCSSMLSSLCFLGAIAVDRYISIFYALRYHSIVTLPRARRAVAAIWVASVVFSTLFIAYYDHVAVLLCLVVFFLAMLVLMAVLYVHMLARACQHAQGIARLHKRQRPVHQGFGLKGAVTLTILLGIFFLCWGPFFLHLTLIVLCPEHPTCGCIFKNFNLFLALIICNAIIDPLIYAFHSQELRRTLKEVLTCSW

[3] = biological target: T2, Melanocyte-stimulating hormone receptor; assay: Agonist activity at human MC1R expressed in HEK2936E cells assessed as cAMP production in presence of IBMX by time resolved fluorescence assay; assay type: functional, cell-based; settings: for pEC50: hek2936e
Melanocortin receptor 5 = Melanocortin receptor 5 (Homo sapiens, UniProt P33032); assay: Agonist activity at human MC5R expressed in HEK2936E cells assessed as cAMP production in presence of IBMX by time resolved fluorescence assay; assay type: functional, cell-based
Melanocortin receptor 5, sequence (P33032 whole entry): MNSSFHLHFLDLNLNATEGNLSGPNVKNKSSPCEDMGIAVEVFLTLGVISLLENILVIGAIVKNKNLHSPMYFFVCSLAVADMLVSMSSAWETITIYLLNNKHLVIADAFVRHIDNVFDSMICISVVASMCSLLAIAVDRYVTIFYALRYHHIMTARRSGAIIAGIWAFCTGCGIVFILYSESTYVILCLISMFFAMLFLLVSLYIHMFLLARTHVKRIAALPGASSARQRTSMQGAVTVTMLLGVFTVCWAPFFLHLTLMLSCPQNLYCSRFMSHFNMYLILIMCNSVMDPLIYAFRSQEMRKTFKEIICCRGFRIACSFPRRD

Melanocortin receptor 3 [4] = biological target: T1, Melanocortin receptor 3; assay: Displacement of [125I]-NDP-alpha-MSH from human MC3R expressed in HEK2936E cell membrane measured after 16 to 23 hrs by 1450 microbeta trilux scintillation proximity assay; assay type: cell membranes; settings: for pKi: hek2936e
Melanocortin receptor 4 [5] = biological target: T3, Melanocortin receptor 4 (Homo sapiens, UniProt P32245); assay: Agonist activity at human MC4R expressed in HEK2936E cells assessed as cAMP production in presence of IBMX by time resolved fluorescence assay; assay type: functional, cell-based
T3 sequence (P32245 whole entry): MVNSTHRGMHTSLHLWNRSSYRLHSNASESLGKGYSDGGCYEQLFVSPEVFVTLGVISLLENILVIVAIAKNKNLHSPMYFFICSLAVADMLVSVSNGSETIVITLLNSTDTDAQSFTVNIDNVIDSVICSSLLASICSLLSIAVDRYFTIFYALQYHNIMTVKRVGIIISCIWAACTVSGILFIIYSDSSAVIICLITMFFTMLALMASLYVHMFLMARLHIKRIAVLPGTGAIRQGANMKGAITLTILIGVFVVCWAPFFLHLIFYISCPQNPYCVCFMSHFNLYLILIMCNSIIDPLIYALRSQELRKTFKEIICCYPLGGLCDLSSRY

Homo sapiens [6] = species: Homo sapiens; assay: Selectivity ratio of EC50 for human MC3R to EC50 for human MC1R
Homo sapiens [7] = species: Homo sapiens; assay: Selectivity ratio of Ki for human MC4R to Ki for human MC1R
Melanocortin receptor 4 [8] = biological target: T3, Melanocortin receptor 4; assay: Displacement of [125I]-NDP-alpha-MSH from human MC4R expressed in HEK2936E cell membrane measured after 16 to 23 hrs by 1450 microbeta trilux scintillation proximity assay; assay type: cell membranes
Homo sapiens [9] = species: Homo sapiens; assay: Selectivity ratio of Ki for human MC3R to Ki for human MC1R
Homo sapiens [10] = species: Homo sapiens; assay: Selectivity ratio of EC50 for human MC4R to EC50 for human MC1R

Row | Structure (SMILES) | Ratio EC50 (Homo sapiens [6]) | Ratio Ki (Homo sapiens [7]) | Ratio Ki (Homo sapiens [9]) | Ratio EC50 (Homo sapiens [10]) | EC50 (Melanocortin receptor 3 [1]) [nM] | Ki [2] [nM] | EC50 (Melanocortin receptor 4 [5]) [nM] | EC50 ([3]; read-out: pEC50 (converted)) [nM] | Ki (Melanocortin receptor 4 [8]) [nM] | Ki (Melanocortin receptor 3 [4]) [nM] | EC50 ([3]; read-out: EC50) [nM] | pEC50 (Melanocortin receptor 3 [1]) | pKi [2] | pEC50 [3] | pEC50 (Melanocortin receptor 5) | pKi (Melanocortin receptor 3 [4]) | pEC50 (Melanocortin receptor 4 [5]; hek2936e) | pKi (Melanocortin receptor 4 [8]; hek2936e)
1 | CC[C@H](C)[C@@H]1NC(=O)[C@@H]2CCCN2C(=O)[C@H](Cc2c[nH]c3ccccc23)NC(=O)[C@H](CCCNC(=N)N)N(C)C(=O)[C@H](Cc2ccccc2)NC(=O)[C@H](Cc2cnc[nH]2)NC(=O)[C@H]([C@@H](C)O)NC(=O)[C@H](NC(C)=O)CCSCc2ccc(cc2)CSCC[C@H](C(N)=O)NC1=O |  |  |  |  |  |  |  |  |  |  |  | 6.3 | 7 | 8.4 | 4.71 | 4.89 |  | 
2 | CC[C@H](C)[C@@H]1NC(=O)[C@@H]2CCCN2C(=O)[C@H](Cc2c[nH]c3ccccc23)NC(=O)[C@H](CCCNC(=N)N)N(C)C(=O)[C@H](Cc2ccccc2)NC(=O)[C@H](Cc2cnc[nH]2)NC(=O)[C@H]([C@@H](C)O)NC(=O)[C@H](NC(C)=O)CCSSCC[C@H](C(N)=O)NC1=O | 40 | 5 | 110 | 10 |  |  |  |  |  |  |  | 6.72 | 7.24 | 8.32 | 5.38 | 5.2 | 7.32 | 6.53

Further lines, with some results ahead:

Row | Ratio EC50 (Homo sapiens [6]) | Ratio Ki (Homo sapiens [7]) | Ratio Ki (Homo sapiens [9]) | Ratio EC50 (Homo sapiens [10]) | EC50 (Melanocortin receptor 3 [1]) [nM] | Ki [2] [nM] | EC50 (Melanocortin receptor 4 [5]) [nM] | EC50 ([3]; read-out: pEC50 (converted)) [nM] | Ki (Melanocortin receptor 4 [8]) [nM] | Ki (Melanocortin receptor 3 [4]) [nM] | EC50 ([3]; read-out: EC50) [nM] | Structure (SMILES) | pEC50 (Melanocortin receptor 3 [1]) | pKi [2] | pEC50 [3] | pEC50 (Melanocortin receptor 5) | pKi (Melanocortin receptor 3 [4]) | pEC50 (Melanocortin receptor 4 [5]; hek2936e) | pKi (Melanocortin receptor 4 [8]; hek2936e)
3 | 1 | 21 | 11 | 13 | 0.692 | 2.09 | 7.24 | 0.55 | 43.7 | 23.4 |  | CCCC[C@@H]1NC(=O)[C@@H]2CSCC(=O)CSC[C@H](NC(=O)[C@H](CCCNC(=N)N)NC(=O)[C@H](CC(=O)O)NC(=O)[C@H](Cc3c[nH]c4ccccc34)NC(=O)[C@H](CCCNC(=N)N)NC(=O)[C@H](Cc3ccccc3)NC(=O)[C@H](Cc3cnc[nH]3)NC(=O)CNC1=O)C(=O)N[C@@H](Cc1cnc[nH]1)C(=O)N[C@@H](Cc1ccccc1)C(=O)N[C@@H](CCCNC(=N)N)C(=O)N[C@@H](Cc1c[nH]c3ccccc13)C(=O)N[C@@H](CCCNC(=N)N)C(=O)N2 (cyclo(CHFRWRC[Nle]GHFRWDR); linker 1-7 via CH2COCH2) |  |  |  |  |  |  | 
4 | 1 | 22 | 8 | 17 | 0.398 | 3.63 | 5.01 | 0.288 | 81.3 | 28.2 |  | CCCC[C@@H]1NC(=O)[C@@H]2CSC3=C(SC[C@H](NC(=O)[C@H](CCCNC(=N)N)NC(=O)[C@H](CC(=O)O)NC(=O)[C@H](Cc4c[nH]c5ccccc45)NC(=O)[C@H](CCCNC(=N)N)NC(=O)[C@H](Cc4ccccc4)NC(=O)[C@H](Cc4cnc[nH]4)NC(=O)CNC1=O)C(=O)N[C@@H](Cc1cnc[nH]1)C(=O)N[C@@H](Cc1ccccc1)C(=O)N[C@@H](CCCNC(=N)N)C(=O)N[C@@H](Cc1c[nH]c4ccccc14)C(=O)N[C@@H](CCCNC(=N)N)C(=O)N2)C(=O)NC3=O (cyclo(CHFRWRC[Nle]GHFRWDR); linker 1-7 via Maleimide(3,4-diyl)) |  |  |  |  |  |  | 
5 | 4 | 47 | 15 | 40 | 0.182 | 0.724 | 1.78 | 0.0447 | 33.9 | 11 | 0.004 | CCCC[C@@H]1NC(=O)[C@@H]2CSc3nnc(nn3)SC[C@H](NC(=O)[C@H](CCCNC(=N)N)NC(=O)[C@H](CC(=O)O)NC(=O)[C@H](Cc3c[nH]c4ccccc34)NC(=O)[C@H](CCCNC(=N)N)NC(=O)[C@H](Cc3ccccc3)NC(=O)[C@H](Cc3cnc[nH]3)NC(=O)CNC1=O)C(=O)N[C@@H](Cc1cnc[nH]1)C(=O)N[C@@H](Cc1ccccc1)C(=O)N[C@@H](CCCNC(=N)N)C(=O)N[C@@H](Cc1c[nH]c3ccccc13)C(=O)N[C@@H](CCCNC(=N)N)C(=O)N2 (cyclo(CHFRWRC[Nle]GHFRWDR); linker 1-7 via X1) |  |  |  |  |  |  | 
